Measurements taken from ChEMBL document CHEMBL5096127, “Using ChEMBL to complement schistosome drug discovery” (2023).
The source made the active and inactive calls. The rule behind the calls is not given here.

What was measured:
[1] = tested on: Schistosoma mansoni; assay: In vitro activity on S. mansoni schistosomula at 10 uM; assay type: functional, organism-based; design: test concentration 10 uM, temperature 37 degree C, time incubation 72 h; details: Puerto Rican
[2] = tested on: Schistosoma mansoni; assay: In vitro activity on S. mansoni schistosomula at 50 uM; assay type: functional, organism-based; design: test concentration 50 uM, temperature 37 degree C, time incubation 72 h; details: Puerto Rican

Cc1cccc(-c2[nH]c(C(C)(C)C)nc2-c2ccc3c(c2)OCO3)n1
In vitro activity [1]: inactive
In vitro activity [2]: inactive

NC(=O)c1ccc(-c2nc(-c3ccccn3)c(-c3ccc4c(c3)OCO4)[nH]2)cc1
In vitro activity [1]: inactive
In vitro activity [2]: Active

CCCCc1nc2cc(/C=C/C(=O)NO)ccc2n1CCN(CC)CC
In vitro activity [1]: inactive
In vitro activity [2]: inactive

Nc1nc(Nc2ccc(S(N)(=O)=O)cc2)nn1C(=O)c1c(F)cccc1F
In vitro activity [1]: inactive
In vitro activity [2]: inactive

C[C@H]1CCCC(=O)CCCCCc2cc(O)cc(O)c2C(=O)O1
In vitro activity [1]: inactive
In vitro activity [2]: inactive

CC(C)(C)c1cnc(CSc2cnc(NC(=O)C3CCNCC3)s2)o1
In vitro activity [1]: inactive
In vitro activity [2]: inactive

O=C(O)C[C@@H]1C(=O)O[C@H]2[C@@H]3OC(=O)c4cc(O)c(O)c(O)c4-c4c(cc(O)c(O)c4O)C(=O)OC[C@H]2O[C@@H](OC(=O)c2cc(O)c(O)c(O)c2)[C@@H]3OC(=O)c2cc(O)c(O)c3c2[C@H]1[C@H](O)C(=O)O3
In vitro activity [1]: inactive
In vitro activity [2]: inactive

COc1ccc(F)c(F)c1C(=O)c1cnc(NC2CCN(S(C)(=O)=O)CC2)nc1N
In vitro activity [1]: inactive
In vitro activity [2]: inactive

CC(C)c1cccc(=O)c(O)c1
In vitro activity [1]: inactive
In vitro activity [2]: inactive

COc1ncc(-c2ccc3nc(N)n(-c4ccccc4C(F)(F)F)c(=O)c3c2)cc1S(=O)(=O)Nc1ccc(F)cc1F
In vitro activity [1]: inactive
In vitro activity [2]: Active

Cc1cc(/N=N/c2cc(S(=O)(=O)O)c(C)cc2C)c(N)cc1O
In vitro activity [1]: inactive
In vitro activity [2]: inactive

CC(=O)Nc1ccc(C(=O)Nc2cc(-c3cccs3)ccc2N)cc1
In vitro activity [1]: inactive
In vitro activity [2]: inactive

COc1ccc(-c2c(-c3ccc(O)cc3O)n[nH]c2C)cc1
In vitro activity [1]: inactive
In vitro activity [2]: inactive

c1ccc(-c2n[nH]cc2-c2ccnc3ccccc23)nc1
In vitro activity [1]: inactive
In vitro activity [2]: inactive

O=C(CCCCCCNC(=O)c1cnc(N(c2ccccc2)c2ccccc2)nc1)NO
In vitro activity [1]: inactive
In vitro activity [2]: inactive

O=C(O)c1ccc(CN2CCC(CN[C@@H]3C[C@H]3c3ccccc3)CC2)cc1
In vitro activity [1]: inactive
In vitro activity [2]: inactive

O=C(CCCCCN1C(=O)c2cccc3cccc(c23)C1=O)NO
In vitro activity [1]: inactive
In vitro activity [2]: inactive

COc1cc(Nc2ncc(F)c(Nc3ccc4c(n3)NC(=O)C(C)(C)O4)n2)cc(OC)c1OC
In vitro activity [1]: inactive
In vitro activity [2]: inactive

CNC(=O)c1c(F)cccc1Nc1nc(Nc2cc3c(cc2OC)CCN3C(=O)CN(C)C)nc2[nH]ccc12
In vitro activity [1]: inactive
In vitro activity [2]: Active

CNC(=O)c1ccc(Nc2nc(OC3CCCC3)c3c(-c4ccc5nc(C)oc5c4)c[nH]c3n2)c(OC)c1
In vitro activity [1]: inactive
In vitro activity [2]: inactive

Fc1ccc(Cl)cc1-c1nc(Nc2ccncc2)c2nccnc2n1
In vitro activity [1]: inactive
In vitro activity [2]: inactive

CN1CCN(C(=O)CN[C@H]2C[C@@H]2c2ccc(OCc3ccccc3)cc2)CC1
In vitro activity [1]: inactive
In vitro activity [2]: Active

Nc1ncnc2c1ncn2[C@@H]1O[C@H](COP(=O)(O)OP(=O)(O)O)[C@@H](O)[C@H]1O
In vitro activity [1]: inactive
In vitro activity [2]: inactive

C#Cc1cccc(Nc2ncnc3cc(OC)c(OCCCCCCC(=O)NO)cc23)c1
In vitro activity [1]: inactive
In vitro activity [2]: inactive

CSc1cccc(Nc2ncc3cc(-c4c(Cl)cccc4Cl)c(=O)n(C)c3n2)c1
In vitro activity [1]: inactive
In vitro activity [2]: inactive

O=C(O[C@H]1[C@@H]2C=CO[C@@H](O[C@@H]3O[C@H](CO)[C@@H](O)[C@H](O)[C@H]3O)[C@@H]2[C@@]2(CO)O[C@@H]12)c1ccc(O)cc1
In vitro activity [1]: inactive
In vitro activity [2]: inactive
